Patent US6541505B1, “Substituted (aminoiminomethyl or aminomethyl) benzoheteroaryl compounds” (Aventis Pharmaceuticals Inc., priority 1998, dated 2003)
Structures can show the parent of a compound that is named as a salt.

Tested on: not given
Settings: not given

Row | melting point [°C] | Structure (SMILES)
1 | 213 to 214 | N=C(N)c1c[nH]c2ccc(CCNC(=O)c3ccc(-n4cccc4)nc3)cc12 [Example 1ab, N-(2-[3-Carbamimidoylindol-5-yl]ethyl)-6-pyrrol-1-ylnicotinamide]
2 | 235 to 236 | N=C(N)c1c[nH]c2ccc(CCNC(=O)c3ccc(-n4cccn4)nc3)cc12 [Example 1ac, N-(2-[3-Carbamimidoylindol-5-yl]ethyl)-6-pyrazol-1-ylnicotinamide]
3 | 191 to 194 | N=C(N)c1c[nH]c2ccc(CCNC(=O)c3ccc(-n4ccnc4)cc3)cc12 [Example 1g, N-(2-[3-Carbamimidoylindol-5-yl]ethyl)-4-imidazol-1-ylbenzamide]
4 | 73 to 76 | CN(C)CCOc1ccccc1-c1ccc(C(=O)NCCc2ccc3[nH]cc(C(=N)N)c3c2)cc1 [Example 1aaaau, 2′-(2-Dimethylaminoethoxy)biphenyl-4-carboxylic acid [2-(3-carbamimidoyl-1H-indol-5-yl)ethyl]amide]
5 | 244 to 245 | N=C(N)c1c[nH]c2ccc(CCNC(=O)c3ccc(-c4ccc(=O)n(CC(N)=O)c4)cc3)cc12 [Example 1aq, N-(2-[3-Carbamimidoylindol-5-yl]ethyl)-4-(1-carbamoylmethyl-6-oxo-1,6-dihydropyridin-3-yl)benzamide]
6 | 139 to 141 | N=C(N)c1c[nH]c2ccc(CCNC(=O)c3ccc(-c4ccnc(N5CCCC5C(N)=O)n4)cc3)cc12 (stereo not drawn) (as salt: salt) [Example 1aaau, 1-(4-{4-[2-(3-Carbamimidoyl-1H-indol-5-yl)ethylcarbamoyl]phenyl}pyrimidin-2-yl)pyrrolidine-2-carboxylic acid amide]
7 | 104 to 105 | N=C(N)c1c[nH]c2ccc(CCNC(=O)c3ccc(-c4ccnc(OCCN5CCCC5)n4)cc3)cc12 (as salt: salt) [Example 1aaaaq, N-[2-(3-Carbamimidoyl-1H-indol-5-yl)ethyl]-4-[2-(2-pyrrolidin-1-yl-ethoxy)pyrimidin-4-yl]benzamide]
8 | > 250 | COc1ccc(-c2ccc(C(=O)NCCc3ccc4[nH]cc(C(=N)N)c4c3)cc2)cc1OC (as salt: salt) [Example 1o, 3′,4′-Dimethoxybiphenyl-4-carboxylic acid (2-[3-carbamimidoylindol-5-yl]ethyl)amide]
9 | 106 to 107 | CN(C)CCOc1nccc(-c2ccc(C(=O)NCCc3ccc4[nH]cc(C(=N)N)c4c3)cc2)n1 [Example 1aaaar, N-[2-(3-Carbamimidoyl-1H-indol-5-yl)ethyl]-4-[2-(2-dimethylaminoethoxy)pyrimidin-4-yl]benzamide]
10 | 82 to 84 | CN(C)CCCCCCOc1nccc(-c2ccc(C(=O)NCCc3ccc4[nH]cc(C(=N)N)c4c3)cc2)n1 [Example 1aaaan, N-[2-(3-Carbamimidoyl-1H-indol-5-yl)ethyl]-4-[2-(6-dimethylaminohexyloxy)pyrimidin-4-yl]benzamide]
11 | 99 to 101 | CN(C)CCOc1cccc(-c2ccc(C(=O)NCCc3ccc4[nH]cc(C(=N)N)c4c3)cc2)c1 [Example 1aaaas, 3′-(2-Dimethylaminoethoxy)biphenyl-4-carboxylic acid [2-(3-carbamimidoyl-1H-indol-5-yl)ethyl]amide]

Tested on: rabbit carotid artery air-drying injury model
Settings: after vascular injury; cited from earlier work

Row | Structure (SMILES) | neointimal proliferation
12 | CC(=N)N1CC[C@H](Oc2ccc([C@H](Cc3ccc4ccc(C(=N)N)cc4c3)C(=O)O)cc2)C1 [DX-9065a] | less neointimal proliferation
